Results as given in ChEMBL document CHEMBL1129204, “Synthesis of ribofuranosyl glycosides of echiguanines A and B, inhibitors of phosphatidylinositol 4-kinase” (Bioorg Med Chem Lett, 1996).
≈ marks a conversion by molar mass, not a printed value.

What was measured:
[1] = target: T1, Phosphatidylinositol 4-kinase, PI4K (Homo sapiens, UniProt Q9BTU6+Q8TCG2+Q9UBF8+P42356); assay: Inhibition of phosphatidylinositol 4-kinase at 100 ug/ml (weak inhibition); type: protein assay
[2] = target: T1, Phosphatidylinositol 4-kinase, PI4K; assay: Inhibition of phosphatidylinositol 4-kinase; type: protein assay

N=C(N)CCNC(=O)c1cn(C2O[C@H](CO)C(O)[C@H]2O)c2nc(N)nc(O)c12 (single isomer, unassigned)
IC50 [1]: weak inhibition

N=C(N)CCNC(=O)c1c[nH]c2nc(N)nc(O)c12 [ECHIGUANINE A]
IC50 [2]: 0.03 µg/mL (≈ 0.114 µM)
